This experiment deals with T1, CDK2/Cyclin E complex (Homo sapiens, UniProt P24941).
T1 construct: purchased Eurofins 14-475
As to the kind of experiment: CDK2/Cyclin E fluorescence-based microfluidic mobility shift assay (CDK2 Biochemical Caliper Assay). Particulars: read-out: Biochemical CDK2/CyclinE Caliper IC50. Here is the method:
Compounds of the present disclosure were tested in a CDK2/Cyclin E fluorescence-based microfluidic mobility shift assay (PerkinElmer).
The active wild type CDK2/Cyclin E complex was purchased from Eurofins (14-475). Compound stocks were prepared in DMSO and were serially diluted into 11 concentrations by 3-fold dilution. […] Compounds were incubated in the presence of CDK2/Cyclin E complex and ATP for 30 minutes at room temperature. Catalytic reaction was initiated with the addition of 5 uL of a 4× peptide solution containing 6 uM fluorescently label substrate peptide, FL Peptide 18 (aa sequence 5-FAM-QSPKKG, PerkinElmer, 760362) in 1× reaction buffer.
The final reaction components were 0.1 nM CDK2/Cyclin E, 2000 uM ATP and 1.5 uM FL Peptide 18 and 1% DMSO. Reactions were incubated RT for 20 hr and terminated with 75 uL of a stopping solution containing 0.5 M EDTA. Samples were analyzed using a LabChip EZ reader (PerkinElmer).

A value given as a limit tells only on which side of the number the result lay.

Regarding `COCc1cc(C(=O)Nc2cc([C@@H]3CC[C@H](Oc4cccnc4C)C3)[nH]n2)n(C)n1` (single isomer, unassigned) [Example 386], the IC50 lay within 250 to 1000 nM.

Take `COCc1cc(C(=O)Nc2cc([C@H]3CC[C@@H](Oc4cncnc4)C3)[nH]n2)n(C)n1` (single isomer, unassigned) [Example 387]: the IC50 is 1000 to 100000 nM.

In the case of `COCc1cc(C(=O)Nc2cc([C@@H]3CC[C@H](Oc4cncnc4)C3)[nH]n2)n(C)n1` (single isomer, unassigned) [Example 388], the IC50 fell in the range of 1000 to 100000 nM.

Take `Cc1cc(CC(=O)Nc2cc([C@H]3CC[C@@H](Oc4ccccc4C(C)C)C3)[nH]n2)on1` (single isomer, unassigned) [Example 389]: the IC50 fell in the range of 250 to 1000 nM.

`Cc1cc(CC(=O)Nc2cc([C@@H]3CC[C@H](Oc4ccccc4C(C)C)C3)[nH]n2)on1` (single isomer, unassigned) [Example 390]: the IC50 was 100 to 250 nM.

`COCc1cc(C(=O)Nc2cc([C@H]3CC[C@@H](Oc4cnccc4C4CC4)C3)[nH]n2)n(C)n1` (single isomer, unassigned) [Example 393]: the IC50 is no more than 100 nM.

For `COCc1cc(C(=O)Nc2cc([C@@H]3CC[C@H](Oc4cnccc4C4CC4)C3)[nH]n2)n(C)n1` (single isomer, unassigned) [Example 394], the IC50 lay in the range of 100 to 250 nM.

Turning to `COCc1cc(C(=O)Nc2cc([C@H]3CC[C@@H](Oc4ccc(C)nc4)C3)[nH]n2)n(C)n1` (single isomer, unassigned) [Example 395], the IC50 fell in the range of 1000 to 100000 nM.

In the case of `COCc1cc(C(=O)Nc2cc([C@@H]3CC[C@H](Oc4ccc(C)nc4)C3)[nH]n2)n(C)n1` (single isomer, unassigned) [Example 396], the IC50 fell in the range of 1000 to 100000 nM.

Take `COCc1nc2ccnc(Nc3cc([C@H]4CC[C@@H](OC(=O)NC(C)C)C4)[nH]n3)c2s1` (single isomer, unassigned) [Example 398]: the IC50 is no more than 100 nM.

Consider `COCc1nc2ccnc(Nc3cc([C@@H]4CC[C@H](OC(=O)NC(C)C)C4)[nH]n3)c2s1` (single isomer, unassigned) [Example 399], for which the IC50 is no more than 100 nM.

As to `CC(C)NC(=O)O[C@@H]1CC[C@H](c2cc(Nc3ncnc4ncccc34)n[nH]2)C1` (single isomer, unassigned) [Example 400], the IC50 is no more than 100 nM.

As for `CC(C)NC(=O)O[C@H]1CC[C@@H](c2cc(Nc3ncnc4ncccc34)n[nH]2)C1` (single isomer, unassigned) [Example 401], the IC50 was no more than 100 nM.

With `Cc1cnn(-c2ccnc(Nc3cc([C@H]4CC[C@@H](OC(=O)NC(C)C)C4)[nH]n3)c2)c1` (single isomer, unassigned) [Example 402], the IC50 was 100 to 250 nM.

In the case of `Cc1cnn(-c2ccnc(Nc3cc([C@@H]4CC[C@H](OC(=O)NC(C)C)C4)[nH]n3)c2)c1` (single isomer, unassigned) [Example 403], the IC50 lay in the range of 100 to 250 nM.

`c1cc2ncsc2c(Nc2cc([C@H]3CC[C@@H](Oc4nscc4C4CC4)C3)[nH]n2)n1` (single isomer, unassigned) [Example 404]: the IC50 is no more than 100 nM.

Take `c1cc2ncsc2c(Nc2cc([C@@H]3CC[C@H](Oc4nscc4C4CC4)C3)[nH]n2)n1` (single isomer, unassigned) [Example 405]: the IC50 is no more than 100 nM.

Regarding `Cc1cc(CC(=O)Nc2cc([C@@H]3CC[C@H](Cc4cn[nH]c4C(C)C)C3)[nH]n2)on1` (single isomer, unassigned) [Example 408], the IC50 fell in the range of 250 to 1000 nM.

In the case of `Cc1cc(CC(=O)Nc2cc([C@H]3CC[C@@H](Cc4cn[nH]c4C(C)C)C3)[nH]n2)on1` (single isomer, unassigned) [Example 409], the IC50 fell in the range of 100 to 250 nM.

With `COCc1cc(C(=O)Nc2cc([C@H]3CC[C@@H](Oc4nnccc4C(C)C)C3)[nH]n2)n(C)n1` (single isomer, unassigned) [Example 410], the IC50 is no more than 100 nM.

For `COCc1cc(C(=O)Nc2cc([C@@H]3CC[C@H](Oc4nnccc4C(C)C)C3)[nH]n2)n(C)n1` (single isomer, unassigned) [Example 411], the IC50 was no more than 100 nM.

For `COCc1cc(C(=O)Nc2cc([C@@H]3CC[C@H](Oc4nscc4C4CC4)C3)[nH]n2)n(C)n1` (single isomer, unassigned) [Example 413], the IC50 was no more than 100 nM.

For `COCc1cc(C(=O)Nc2cc([C@H]3CC[C@@H](Oc4nscc4C4CC4)C3)[nH]n2)n(C)n1` (single isomer, unassigned) [Example 414], the IC50 is no more than 100 nM.

As for `COCc1cc(C(=O)Nc2cc([C@H]3CC[C@@H](Oc4ccc(C(C)C)nn4)C3)[nH]n2)n(C)n1` (single isomer, unassigned) [Example 415], the IC50 lay within 250 to 1000 nM.

Take `CC(C)NC(=O)O[C@@H]1CC[C@H](c2cc(N)n[nH]2)C1` (single isomer, unassigned) [Example 417]: the IC50 lay in the range of 1000 to 100000 nM.

For `CC(C)NC(=O)O[C@H]1CC[C@@H](c2cc(N)n[nH]2)C1` (single isomer, unassigned) [Example 418], the IC50 lay in the range of 1000 to 100000 nM.

For `COCc1cc(C(=O)Nc2cc([C@H]3CC[C@@](C)(CC(=O)NC(C)C)C3)[nH]n2)n(C)n1` (single isomer, unassigned) [Example 419], the IC50 is 1000 to 100000 nM.

On to `COCc1cc(C(=O)Nc2cc([C@@H]3CC[C@](C)(CC(=O)NC(C)C)C3)[nH]n2)n(C)n1` (single isomer, unassigned) [Example 420], for which the IC50 is 1000 to 100000 nM.

Consider `CC(=O)Nc1cc([C@H]2CC[C@@H](Oc3nscc3C3CC3)C2)[nH]n1` (single isomer, unassigned) [Example 421], for which the IC50 is no more than 100 nM.

For `CC(=O)Nc1cc([C@@H]2CC[C@H](Oc3nscc3C3CC3)C2)[nH]n1` (single isomer, unassigned) [Example 422], the IC50 is no more than 100 nM.

Take `CC(=O)Nc1nc2ccnc(Nc3cc([C@H]4CC[C@@H](OC(=O)NC(C)C)C4)[nH]n3)c2s1` (single isomer, unassigned) [Example 423]: the IC50 was no more than 100 nM.

Take `CC(=O)Nc1nc2ccnc(Nc3cc(C4CC[C@H](OC(=O)NC(C)C)C4)[nH]n3)c2s1` (single isomer, unassigned) [Example 424]: the IC50 was no more than 100 nM.

Take `CC(=O)Nc1cc([C@H]2CC[C@@H](Oc3nnccc3C(C)C)C2)[nH]n1` (single isomer, unassigned) [Example 427]: the IC50 is no more than 100 nM.

As to `CC(=O)Nc1cc([C@@H]2CC[C@H](Oc3nnccc3C(C)C)C2)[nH]n1` (single isomer, unassigned) [Example 428], the IC50 is no more than 100 nM.

`CC(C)NC(=O)O[C@@H]1CC[C@H](c2cc(NC=O)n[nH]2)C1` (single isomer, unassigned) [Example 440]: the IC50 is 250 to 1000 nM.

Consider `CC(C)NC(=O)O[C@H]1CC[C@@H](c2cc(NC=O)n[nH]2)C1` (single isomer, unassigned) [Example 441], for which the IC50 was 250 to 1000 nM.

Take `Cc1cc(CC(=O)Nc2ncc([C@H]3CC[C@@H](OC(=O)NC(C)C)C3)s2)on1` (single isomer, unassigned) [Example 442]: the IC50 is no more than 100 nM.

Consider `Cc1cc(CC(=O)Nc2ncc([C@@H]3CC[C@H](OC(=O)NC(C)C)C3)s2)on1` (single isomer, unassigned) [Example 443], for which the IC50 was no more than 100 nM.

For `COCc1nc2ccnc(Nc3cc([C@H]4CC[C@@H](Oc5nnccc5C(C)C)C4)[nH]n3)c2s1` (single isomer, unassigned) [Example 444], the IC50 was no more than 100 nM.

Turning to `COCc1nc2ccnc(Nc3cc([C@@H]4CC[C@H](Oc5nnccc5C(C)C)C4)[nH]n3)c2s1` (single isomer, unassigned) [Example 445], the IC50 was no more than 100 nM.

For `COCc1cc(C(=O)Nc2cc([C@@H]3CC[C@@](C)(CC(=O)NC(C)C)C3)[nH]n2)n(C)n1` (single isomer, unassigned) [Example 447], the IC50 lay within 1000 to 100000 nM.

For the molecule `COCc1cc(C(=O)Nc2cc([C@H]3CC[C@](C)(CC(=O)NC(C)C)C3)[nH]n2)n(C)n1` (single isomer, unassigned) [Example 448], the IC50 is 1000 to 100000 nM.

On to `COCc1cc(C(=O)Nc2cc([C@@H]3CC[C@H](Oc4ccc(C(C)C)nn4)C3)[nH]n2)n(C)n1` (single isomer, unassigned) [Example 449], for which the IC50 fell in the range of 1000 to 100000 nM.

Regarding `Cc1cc(CC(=O)Nc2cc([C@H]3CC[C@@H](OC(=O)[C@H](N)C(C)C)C3)[nH]n2)on1` (single isomer, unassigned) [Example 450], the IC50 was no more than 100 nM.

On to `Cc1cc(CC(=O)Nc2cc([C@@H]3CC[C@H](OC(=O)[C@H](N)C(C)C)C3)[nH]n2)on1` (single isomer, unassigned) [Example 451], for which the IC50 lay in the range of 100 to 250 nM.

Consider `Cc1cc(CC(=O)Nc2cc([C@H]3CC[C@@H](NC(=O)[C@H](O)C(C)C)C3)[nH]n2)on1` (single isomer, unassigned) [Example 452], for which the IC50 is 1000 to 100000 nM.

On to `Cc1cc(CC(=O)Nc2cc([C@@H]3CC[C@H](NC(=O)[C@H](O)C(C)C)C3)[nH]n2)on1` (single isomer, unassigned) [Example 453], for which the IC50 lay in the range of 1000 to 100000 nM.

Turning to `CCOC(=O)c1cc2c(Nc3cc([C@H]4CC[C@@H](OC(=O)NC(C)C)C4)[nH]n3)nc(C)cn2n1` (single isomer, unassigned) [Example 462], the IC50 was no more than 100 nM.

Consider `CCOC(=O)c1cc2c(Nc3cc([C@@H]4CC[C@H](OC(=O)NC(C)C)C4)[nH]n3)nc(C)cn2n1` (single isomer, unassigned) [Example 463], for which the IC50 was no more than 100 nM.

On to `COCc1nc2ccnc(Nc3cc([C@@H]4C[C@H](OC(=O)NC(C)C)CO4)[nH]n3)c2s1` (single isomer, unassigned) [Example 466], for which the IC50 was no more than 100 nM.

These data come from patent publication US20240190855A1 (Relay Therapeutics, Inc., priority 2021, published 2024).
